Our source for the IC50 values is ChEMBL document CHEMBL5518186, “Discovery of the cereblon-recruiting tubulin PROTACs effective in overcoming Taxol resistance in vitro and in vivo” (Eur J Med Chem, 2024).

Holding throughout (assay type): functional, cell-based
One assay has as its system A549. As to the kind of experiment: Antiproliferative activity against human A549 cells incubated for 72 hrs. The following applies: A549, 72 h.
In a further assay the test system is MCF7. As to the kind of experiment: Antiproliferative activity against human MCF7 cells incubated for 72 hrs. The following applies: MCF7, 72 h.
Another assay has as its system MGC-803. Briefly: Antiproliferative activity against human MGC-803 cells incubated for 72 hrs. To be noted: MGC-803, 72 h.
Another assay has as its system HepG2. Briefly: Antiproliferative activity against human HepG2 cells incubated for 72 hrs. The following applies: HepG2, 72 h.
In another assay the test system is U-937. Briefly: Antiproliferative activity against human U-937 cells incubated for 72 hrs. The following applies: U-937, 72 h.
Another assay relates to HeLa. As to the kind of experiment: Antiproliferative activity against human HeLa cells incubated for 72 hrs.

Turning to `COc1ccc(/C=C\c2cc(OC)c(OC)c(OC)c2)cc1OC(=O)CCCCCOCCc1cn(CCCCCC(=O)Nc2cccc3c2C(=O)N(C2CCC(=O)NC2=O)C3=O)nn1` (centres undefined), the IC50 in the assay on A549 is 1.76 µM; in the assay on MCF7, 2.3 µM; in the assay with MGC-803, 1.79 µM; in the assay on HepG2, 1.99 µM; in the assay on U-937, more than 5 µM; with HeLa, more than 5 µM.

With `COc1ccc(/C=C\c2cc(OC)c(OC)c(OC)c2)cc1OC(=O)CCCCOCCc1cn(CCCCCC(=O)Nc2cccc3c2C(=O)N(C2CCC(=O)NC2=O)C3=O)nn1` (centres undefined), the 50% inhibitory concentration (IC50) with A549 came to 0.466 µM; in the assay with MCF7, 0.417 µM; in the assay with MGC-803, 0.195 µM; in the assay on HepG2 it was 0.242 µM; in the assay with U-937, 8.59 µM; in the assay on HeLa, 1.31 µM.

`COc1ccc(/C=C\c2cc(OC)c(OC)c(OC)c2)cc1OCc1cn(CCCCC(=O)Nc2cccc3c2C(=O)N(C2CCC(=O)NC2=O)C3=O)nn1` (centres undefined): the IC50 in the assay on A549 is more than 5 µM; with MCF7 it was 4.06 µM; in the assay with MGC-803, more than 5 µM; with HepG2, more than 5 µM; with U-937 it was 1.62 µM; with HeLa, more than 5 µM.

As for `COc1ccc(/C=C\c2cc(OC)c(OC)c(OC)c2)cc1OC(=O)CCCN1C(=O)CCC(N2Cc3c(N)cccc3C2=O)C1=O` (centres undefined), the IC50 with A549, with MCF7, in the assay with MGC-803, with HepG2, in the assay with U-937 and with HeLa was more than 5 µM in each case.

Regarding `COc1ccc(/C=C\c2cc(OC)c(OC)c(OC)c2)cc1OC(=O)CN1C(=O)CCC(N2Cc3c(N)cccc3C2=O)C1=O` (centres undefined), the IC50 in the assay with A549, with MCF7, with MGC-803, in the assay with HepG2, with U-937 and with HeLa was more than 5 µM each time.

Take `COc1ccc(/C=C\c2cc(OC)c(OC)c(OC)c2)cc1OC(=O)CCNc1cccc2c1C(=O)N(C1CCC(=O)NC1=O)C2=O` (centres undefined): the IC50 with A549, in the assay with MCF7, in the assay with MGC-803, in the assay on HepG2, with U-937 and in the assay on HeLa was more than 5 µM in each case.

Turning to `COc1ccc(/C=C\c2cc(OC)c(OC)c(OC)c2)cc1OC(=O)CCCOCCc1cn(CCCCCC(=O)Nc2cccc3c2C(=O)N(C2CCC(=O)NC2=O)C3=O)nn1` (centres undefined), the IC50 in the assay on A549 was 3.9 µM; in the assay with MCF7, 2.98 µM; with MGC-803 it was 3.1 µM; in the assay with HepG2, 2.88 µM; in the assay with U-937, more than 5 µM; with HeLa, more than 5 µM.

Turning to `COc1ccc(/C=C\c2cc(OC)c(OC)c(OC)c2)cc1OC(=O)CCCCCN1C(=O)CCC(N2Cc3c(N)cccc3C2=O)C1=O` (centres undefined), the half-maximal inhibitory concentration (IC50) in the assay with A549, in the assay with MCF7, in the assay with MGC-803, with HepG2, in the assay on U-937 and in the assay on HeLa was more than 5 µM throughout.

Regarding `COc1ccc(/C=C\c2cc(OC)c(OC)c(OC)c2)cc1OC(=O)CCCOCCc1cn(CCCC(=O)Nc2cccc3c2C(=O)N(C2CCC(=O)NC2=O)C3=O)nn1` (centres undefined), the IC50 with A549 was 3.75 µM; in the assay on MCF7 it was 4.23 µM; in the assay on MGC-803, 2.35 µM; in the assay with HepG2, 3.12 µM; in the assay on U-937 it was more than 5 µM; in the assay on HeLa it was more than 5 µM.

Consider `COc1ccc(/C=C\c2cc(OC)c(OC)c(OC)c2)cc1OCc1cn(CCCCCC(=O)Nc2cccc3c2C(=O)N(C2CCC(=O)NC2=O)C3=O)nn1` (centres undefined), for which the half-maximal inhibitory concentration (IC50) in the assay on A549, in the assay with MCF7, in the assay with MGC-803, in the assay with HepG2, in the assay with U-937 and in the assay with HeLa was more than 5 µM throughout.

For `COc1ccc(/C=C\c2cc(OC)c(OC)c(OC)c2)cc1OC(=O)CNc1cccc2c1C(=O)N(C1CCC(=O)NC1=O)C2=O` (centres undefined), the IC50 with A549, in the assay on MCF7, in the assay with MGC-803, with HepG2, in the assay with U-937 and in the assay on HeLa was more than 5 µM throughout.

For `COc1ccc(/C=C\c2cc(OC)c(OC)c(OC)c2)cc1OC(=O)CCCCCOCCc1cn(CCCCC(=O)Nc2cccc3c2C(=O)N(C2CCC(=O)NC2=O)C3=O)nn1` (centres undefined), the concentration for half-maximal inhibition (IC50) was 2.44 µM with A549; 2.35 µM with MCF7; 1.4 µM with MGC-803; 1.92 µM in the assay on HepG2; more than 5 µM with U-937; more than 5 µM with HeLa.

In the case of `COc1ccc(/C=C\c2cc(OC)c(OC)c(OC)c2)cc1OC(=O)CCN1C(=O)CCC(N2Cc3c(N)cccc3C2=O)C1=O` (centres undefined), the IC50 with A549, with MCF7, in the assay with MGC-803, in the assay on HepG2, in the assay on U-937 and in the assay on HeLa was more than 5 µM each time.

`COc1ccc(/C=C\c2cc(OC)c(OC)c(OC)c2)cc1OC(=O)CCCOCCc1cn(CCCCC(=O)Nc2cccc3c2C(=O)N(C2CCC(=O)NC2=O)C3=O)nn1` (centres undefined): the IC50 in the assay with A549, in the assay with MCF7, in the assay on MGC-803, in the assay on HepG2, in the assay with U-937 and in the assay on HeLa was more than 5 µM throughout.

For the molecule `COc1ccc(/C=C\c2cc(OC)c(OC)c(OC)c2)cc1OCc1cn(CCCC(=O)Nc2cccc3c2C(=O)N(C2CCC(=O)NC2=O)C3=O)nn1` (centres undefined), the concentration for half-maximal inhibition (IC50) was 2.76 µM in the assay on A549; more than 5 µM with MCF7; 1.24 µM in the assay with MGC-803; 1.6 µM in the assay on HepG2; more than 5 µM in the assay with U-937; more than 5 µM in the assay with HeLa.

For the molecule `COc1ccc(/C=C\c2cc(OC)c(OC)c(OC)c2)cc1OC(=O)CCCCOCCc1cn(CCCCC(=O)Nc2cccc3c2C(=O)N(C2CCC(=O)NC2=O)C3=O)nn1` (centres undefined), the IC50 in the assay on A549 amounted to 0.374 µM; with MCF7, 0.263 µM; in the assay with MGC-803 it was 0.175 µM; in the assay with HepG2, 0.213 µM; in the assay with U-937, 0.8 µM; in the assay on HeLa, 1.51 µM.

With `COc1ccc(/C=C\c2cc(OC)c(OC)c(OC)c2)cc1OC(=O)CCCCCOCCc1cn(CCCC(=O)Nc2cccc3c2C(=O)N(C2CCC(=O)NC2=O)C3=O)nn1` (centres undefined), the half-inhibitory concentration (IC50) is 1.83 µM with A549; 2.38 µM in the assay on MCF7; 1.53 µM in the assay with MGC-803; 2.3 µM in the assay with HepG2; more than 5 µM in the assay on U-937; 1.9 µM in the assay on HeLa.

For `COc1ccc(/C=C\c2cc(OC)c(OC)c(OC)c2)cc1OC(=O)CCCCOCCc1cn(CCCC(=O)Nc2cccc3c2C(=O)N(C2CCC(=O)NC2=O)C3=O)nn1` (centres undefined), the IC50 is 0.544 µM in the assay on A549; 0.247 µM in the assay with MCF7; 0.061 µM in the assay on MGC-803; 0.128 µM in the assay with HepG2; 4.32 µM in the assay on U-937; 1.27 µM in the assay with HeLa.

Regarding `COc1ccc(/C=C\c2cc(OC)c(OC)c(OC)c2)cc1OC(=O)CCCCN1C(=O)CCC(N2Cc3c(N)cccc3C2=O)C1=O` (centres undefined), the IC50 with A549, in the assay with MCF7, in the assay on MGC-803, in the assay with HepG2, with U-937 and in the assay on HeLa was more than 5 µM each time.

As a reminder, the IC50 is the concentration that gives 50% inhibition. A lower IC50 goes with higher potency.
